How the values were obtained:
Staphylococcus capitis = assay: Antimicrobial activity against Staphylococcus capitis W7 assessed as reduction in microbial growth by broth microdilution method; assay type: functional
Micrococcus luteus = assay: Antimicrobial activity against Micrococcus luteus ATCC 4685 assessed as reduction in microbial growth by broth microdilution method; assay type: functional
Staphylococcus aureus [1] = assay: Antimicrobial activity against methicillin resistant Staphylococcus aureus assessed as reduction in microbial growth by broth microdilution method; assay type: functional
Enterococcus = assay: Antimicrobial activity against Vancomycin-resistant Enterococci assessed as reduction in microbial growth by broth microdilution method; assay type: functional
Staphylococcus aureus [2] = assay: Antimicrobial activity against Staphylococcus aureus LV-B1 assessed as reduction in microbial growth by broth microdilution method; assay type: functional
Bacillus subtilis = assay: Antimicrobial activity against Bacillus subtilis ATCC 6051 assessed as reduction in microbial growth by broth microdilution method; assay type: functional
Klebsiella pneumoniae = assay: Antimicrobial activity against Klebsiella pneumoniae W5 assessed as reduction in microbial growth by broth microdilution method; assay type: functional
Escherichia coli = assay: Antimicrobial activity against Escherichia coli CGMCC 1.3344 assessed as reduction in microbial growth by broth microdilution method; assay type: functional
Shigella sonnei = assay: Antimicrobial activity against Shigella sonnei ZD12 assessed as reduction in microbial growth by broth microdilution method; assay type: functional
Paracidovorax avenae = assay: Antimicrobial activity against Acidovorax avenae ATCC 19307 assessed as reduction in microbial growth by broth microdilution method; assay type: functional
Pseudomonas syringae = assay: Antimicrobial activity against Pseudomonas syringae ATCC-BAA-2502 assessed as reduction in microbial growth by broth microdilution method; assay type: functional
Xanthomonas oryzae = assay: Antimicrobial activity against Xanthomonas oryzae ATCC 35933 assessed as reduction in microbial growth by broth microdilution method; assay type: functional
A549 = assay: Anticancer activity against human A549 cells assessed as reduction in cell viability at 40 uM measured after 48 hrs by CCK-8 method relative to control; assay type: functional
HepG2 = assay: Anticancer activity against human HepG2 cells assessed as reduction in cell viability at 40 uM measured after 48 hrs by CCK-8 method relative to control; assay type: functional
SW480 = assay: Anticancer activity against human SW480 cells assessed as reduction in cell viability at 40 uM measured after 48 hrs by CCK-8 method relative to control; assay type: functional
MDA-MB-231 = assay: Anticancer activity against human MDA-MB-231 cells assessed as reduction in cell viability at 40 uM measured after 48 hrs by CCK-8 method relative to control; assay type: functional
MCF7 = assay: Anticancer activity against human MCF7 cells assessed as reduction in cell viability at 40 uM measured after 48 hrs by CCK-8 method relative to control; assay type: functional
RAW264.7 [3] = assay: Cytotoxicity against mouse RAW264.7 cells measured after 24hrs by CCK-8 method relative to control; assay type: toxicity, cell-based; parameters: concentration or dose not given beside the values; details: raw264.7, 24 h
RAW264.7 [4] = assay: Antiinflammatory activity in mouse RAW264.7 assessed as reduction in LPS-induced NO production incubated for 24 hrs by Griess method relative to control; assay type: functional; parameters: concentration or dose not given beside the values

Structure (SMILES) | MIC (Staphylococcus capitis) | MIC (Micrococcus luteus) | MIC (Staphylococcus aureus [1]) | MIC (Enterococcus) | MIC (Staphylococcus aureus [2]) | MIC (Bacillus subtilis) | MIC (Klebsiella pneumoniae) | MIC (Escherichia coli) | MIC (Shigella sonnei) | MIC (Paracidovorax avenae) | MIC (Pseudomonas syringae) | MIC (Xanthomonas oryzae) | Activity (A549) | Activity (HepG2) | Activity (SW480) | Activity (MDA-MB-231) | Activity (MCF7) | Activity (RAW264.7 [3]) | Activity (RAW264.7 [4])
C[C@H]1CC[C@@H](O)[C@]2(C)CC[C@@H](C(C)(C)O)[C@H](O)[C@@H]12 | > 128 µg/mL | > 128 µg/mL | > 128 µg/mL | > 128 µg/mL | > 128 µg/mL | > 128 µg/mL | > 128 µg/mL | > 128 µg/mL | > 128 µg/mL | > 128 µg/mL | > 128 µg/mL | > 128 µg/mL | 0.97% | -2.3% | 10.33% | -2.4% | 5.53% | 88.18% | 3.3%
C/C1=C\CC/C(CO)=C\[C@H]2[C@H](C[C@H]1O)C2(C)C | > 128 µg/mL | > 128 µg/mL | > 128 µg/mL | > 128 µg/mL | > 128 µg/mL | > 128 µg/mL | > 128 µg/mL | > 128 µg/mL | > 128 µg/mL | > 128 µg/mL | > 128 µg/mL | > 128 µg/mL | 7.59% | 6.04% | 46.36% | 6.53% | 15.37% | 83.59% | -1.42%
CC1=C[C@@H]2[C@@H](C(C)C)CC[C@@](C)(O)[C@@H]2CC1=O | > 128 µg/mL | > 128 µg/mL | > 128 µg/mL | > 128 µg/mL | > 128 µg/mL | > 128 µg/mL | > 128 µg/mL | > 128 µg/mL | > 128 µg/mL | > 128 µg/mL | > 128 µg/mL | > 128 µg/mL | 8.55% | -9.79% | -22.26% | 20.55% | 13.45% | 82.62% | -11.3%
C[C@@H]1C(=O)C[C@@H]2[C@H]3[C@H]1OC(C)(C)[C@H]3CC[C@@]2(C)O | > 128 µg/mL | > 128 µg/mL | > 128 µg/mL | > 128 µg/mL | > 128 µg/mL | > 128 µg/mL | > 128 µg/mL | > 128 µg/mL | > 128 µg/mL | > 128 µg/mL | > 128 µg/mL | > 128 µg/mL | 0.67% | -1.81% | 13.67% | -3.76% | 9.07% | 91.87% | -1.87%
CC1=C[C@H]2[C@H](C(C)C)CC[C@@](C)(O)[C@H]2C[C@H]1O | > 128 µg/mL | > 128 µg/mL | > 128 µg/mL | > 128 µg/mL | > 128 µg/mL | > 128 µg/mL | > 128 µg/mL | > 128 µg/mL | > 128 µg/mL | > 128 µg/mL | > 128 µg/mL | > 128 µg/mL | 5.64% | -5.25% | 4.58% | -8.69% | 12.99% | 87.41% | -6.33%
C[C@H]1CC[C@@H]2[C@H]3[C@H]1OC(C)(C)[C@@H]3CC[C@@]2(C)O (relative stereo) | > 128 µg/mL | > 128 µg/mL | > 128 µg/mL | > 128 µg/mL | > 128 µg/mL | > 128 µg/mL | > 128 µg/mL | > 128 µg/mL | > 128 µg/mL | > 128 µg/mL | > 128 µg/mL | > 128 µg/mL | 12.03% | -8.24% | -11.92% | 4.18% | 14.7% | 94.77% | -7.88%
CN(C)[C@@H]1C(O)=C(C(N)=O)C(=O)[C@@]2(O)C(O)=C3C(=O)c4c(O)cccc4[C@@](C)(O)[C@H]3C[C@@H]12 [TETRACYCLINE] | 4 µg/mL | 2 µg/mL | 4 µg/mL | 2 µg/mL | 0.5 µg/mL | 2 µg/mL | > 128 µg/mL | 2 µg/mL | 8 µg/mL | 4 µg/mL | > 128 µg/mL | 8 µg/mL |  |  |  |  |  |  | 

— ChEMBL document CHEMBL5357033, “Discovery of Diverse Sesquiterpenoids from Crossiella cryophila through Genome Mining and NMR Tracking” (J Nat Prod, 2024)
